In PubChem BioAssay AID248 (DTP/NCI, 2004):
Values joined by “and” are separate entries in the source; they are usually repeats but may differ in a detail not shown here. Equal values may be shown once. Inconclusive results and toxic doses are left out. No stated cut-off is given here; in the data, active means T/C of 150% or more; inactive means T/C below 125%.

System: L1210 leukemia ip in BDF1 mice, survival T/C
Test: NCI In Vivo Anticancer Drug Screen. Data for tumor model L1210 Leukemia (intraperitoneal) in B6D2F1 (BDF1) mice
Conditions: endpoint: mean survival time, higher = longer survival
How it was run: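 Mice bearing the transplanted tumor received compound or vehicle. Survival of the treated group was divided by that of the vehicle-treated control group to give the ratio.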

Measured: T/C

NC(=O)c1cn(C2OC(CO)C(O)C2O)c2ncnc(N)c12 (configuration not stated)
inactive: dose: 1.5 mg/kg/injection, schedule: Q01DX009 (ip), vehicle: saline with Tween-80 114 % of control and 118 % of control | dose: 1.5 mg/kg/injection, schedule: Q01DX009 (ip), vehicle: saline 112 % of control | dose: 1.5 mg/kg/injection, schedule: Q01DX Z (ip), vehicle: carboxymethylcellulose (CMC) 108 % of control | dose: 1.5 mg/kg/injection, schedule: Q01DX Z (ip), vehicle: water 101 % of control | dose: 1.56 mg/kg/injection, schedule: Q01DX005 (ip), vehicle: saline 90 % of control | dose: 1.6 mg/kg/injection, schedule: Q01DX009 (ip), vehicle: saline 108 % of control | dose: 2.0 mg/kg/injection, schedule: Q01DX001 (sc), vehicle: saline 103 % of control and 108 % of control | dose: 2.0 mg/kg/injection, schedule: Q01DX006 (iv), vehicle: saline 115 % of control | dose: 2.0 mg/kg/injection, schedule: Q01DX009 (ip), vehicle: saline 96 % of control and 100 % of control | dose: 2.0 mg/kg/injection, schedule: Q01DX010 (oral), vehicle: saline 104 % of control | dose: 2.0 mg/kg/injection, schedule: Q01DX Z (im), vehicle: saline 117 % of control | dose: 2.0 mg/kg/injection, schedule: Q01DX Z (ip), vehicle: carboxymethylcellulose (CMC) 105 % of control | dose: 2.4 mg/kg/injection, schedule: Q01DX009 (ip), vehicle: saline 96 % of control | dose: 2.5 mg/kg/injection, schedule: Q02DX009 (ip), vehicle: carboxymethylcellulose (CMC) 90 % of control | dose: 2.5 mg/kg/injection, schedule: Q04DX005 (ip), vehicle: carboxymethylcellulose (CMC) 118 % of control | dose: 3.0 mg/kg/injection, schedule: Q01DX009 (ip), vehicle: saline with Tween-80 110 % of control | dose: 3.0 mg/kg/injection, schedule: Q01DX Z (ip), vehicle: water 104 % of control | dose: 4.0 mg/kg/injection, schedule: Q01DX001 (sc), vehicle: saline 102 % of control and 107 % of control | dose: 4.0 mg/kg/injection, schedule: Q01DX006 (iv), vehicle: saline 91 % of control | dose: 4.0 mg/kg/injection, schedule: Q01DX010 (oral), vehicle: saline 101 % of control | dose: 4.0 mg/kg/injection, schedule: Q01DX Z (im), vehicle: saline 108 % of control | dose: 4.0 mg/kg/injection, schedule: Q## X024 (ip), vehicle: saline 97 % of control | dose: 5.0 mg/kg/injection, schedule: Q01DX001 (oral), vehicle: saline 102 % of control and 103 % of control | dose: 5.0 mg/kg/injection, schedule: Q08DX003 (ip), vehicle: carboxymethylcellulose (CMC) 121 % of control | dose: 8.0 mg/kg/injection, schedule: Q## X003 (ip), vehicle: saline 109 % of control | dose: 10.0 mg/kg/injection, schedule: Q01DX001 (oral), vehicle: saline 105 % of control | dose: 16.0 mg/kg/injection, schedule: Q01DX001 (ip), vehicle: saline 102 % of control | dose: 20.0 mg/kg/injection, schedule: Q01DX001 (oral), vehicle: saline 112 % of control
active: dose: 1.8 mg/kg/injection, schedule: Q01DX Z (ip), vehicle: water 152 % of control | dose: 2.0 mg/kg/injection, schedule: Q03DX005 (ip), vehicle: other 155 % of control | dose: 2.0 mg/kg/injection, schedule: Q## X003 (ip), vehicle: saline 220 % of control | dose: 2.0 mg/kg/injection, schedule: Q## X008 (ip), vehicle: saline 157 % of control | dose: 2.0 mg/kg/injection, schedule: Q## X024 (ip), vehicle: saline 155 % of control | dose: 2.5 mg/kg/injection, schedule: Q01DX001 (ip), vehicle: carboxymethylcellulose (CMC) 165 % of control | dose: 2.7 mg/kg/injection, schedule: Q01DX Z (ip), vehicle: water 161 % of control | dose: 3.0 mg/kg/injection, schedule: Q01DX001 (ip), vehicle: water 157 % of control | dose: 3.0 mg/kg/injection, schedule: Q03DX005 (ip), vehicle: other 157 % of control and 170 % of control | dose: 4.0 mg/kg/injection, schedule: Q01DX001 (ip), vehicle: clinical formulation 159 % of control | dose: 4.0 mg/kg/injection, schedule: Q## X008 (ip), vehicle: saline 170 % of control | dose: 5.0 mg/kg/injection, schedule: Q01DX001 (ip), vehicle: water 185 % of control | dose: 5.0 mg/kg/injection, schedule: Q03DX005 (ip), vehicle: other 162 % of control | dose: 8.0 mg/kg/injection, schedule: Q## X008 (ip), vehicle: saline 195 % of control
